# Experiments:
# [1] = tested on: obesity-induced NASH-associated mouse liver cancer model; assay: DMBA plus high fat diet-induced NASH-associated mouse liver cancer model: tumor development and body weight; assay type: in vivo
# Method: FIG. 1 depicts a mouse model timeline developed by treating with 7,12-dimethylbenz(a)anthracene (“DMBA”), and by feeding with a high fat diet (HFD). Compound A was administered to the mice every day from 19 weeks of age to 30 weeks of age and then euthanized (“Eut”).
# FIG. 2 is macroscopic photographs of the liver isolated from the vehicle-treated mice (left side) and Compound A-treated mice (right side). […] Compound A or a vehicle (n=5, each) were treated to the mice every day from 19 weeks of age to 30 weeks of age. Arrowheads identify hepatocellular carcinomas (HCCs).
# FIG. 3 depicts the average liver tumor numbers and the relative size distribution (classified as >6 mm, 2-6 mm, 2 mm). “NS” means not significant.
# FIG. 4 depicts the average body weight of the vehicle-treated group and Compound A-treated group at the age of 30 weeks. Data are represented as means±SD.
# C57/BL6 mice were purchased from CLEA Japan Inc. The TIr2^−/− mice (C57/BL6) were purchased from Oriental Yeast Co. Ltd.
# Hematoxylin and eosin staining and immunofluorescence analysis were performed as previously described (Yoshimoto et al., Nature, 2013, 499:97-101).
# P values less than 0.05 were considered significant. “NS” indicates not significant.
# This mouse model was developed by treating with DMBA, 7,12-dimethylbenz(a)anthracene, and by feeding a high fat diet (HFD) (Ootani 2013). […] In this experiment, Compound A 30 mg/kg QD was administered to the mice every day from 19 weeks of age to 30 weeks of age (FIG. 1). As a control, a separate group of mice were treated only with a vehicle and no active ingredient.
# [2] = tested on: immune cells obtained from mouse livers; conditions: liver, 30 mg/kg QD, vs vehicle
# Method: FIG. 5A depicts flow cytometry analysis of immune cells between vehicle-treated mice or Compound A-treated mice. The percentages of total CD11c^hi MHC class II (MHC II)^hi, CD11b^+ CD11c^hi MHC II^hi, or CD103^+ CD11c^hiMHC II^hi cells were analyzed by flow cytometry. Data are represented as means±SEM.
# FIG. 6A depicts the percentages of CD3^+ CD4^+ Foxp3^+, CD3^+ CD4^+ Foxp3^−, CD3^+ CD8^+ cells analyzed by flow cytometry. The ratio of CD8^+ T cells to CD4^+ Foxp3^+ Tregs was calculated. Data are represented as means±SEM. NS=not significant, *p<0.05, **p<0.01.
# In FIG. 7A, the percentages of CD69^+ CD8^+ cells were analyzed by flow cytometry (*p<0.05, **p<0.01).
# In FIG. 8A, the percentages of PD-1^+ CD8^+ cells were analyzed by flow cytometry (*p<0.05, **p<0.01).
# Immune cells were obtained from mouse livers and were subjected to measuring cytokine production and flow cytometric analysis.
# Data were analyzed by unpaired t-test with Welch correction (two-side) or Man-Whitney test (two-side). P values less than 0.05 were considered significant. “NS” indicates not significant.
# The impact of EP4 blockage on the prevalence and activation status of immune cells was assessed.
smiles,measurement,setting,value
"C[C@H](NC(=O)c1cc(Cl)cnc1Oc1cccc(F)c1)c1ccc(C(=O)O)cc1 [Compound A, 4-[(1S)-1-({[5-chloro-2-(3-fluorophenoxy)pyridin-3-yl]carbonyl}amino)ethyl]-benzoic acid]",body weight,"[1]; 30 mg/kg QD, at the age of 30 weeks, FIG. 4",did not influence body weight
same,Hepatocellular carcinoma (HCC) development,"[1]; Compound A 30 mg/kg QD from 19 to 30 weeks of age, compared to vehicle-treated mice",strongly reduced
same,Tumor colony sized more than 6 mm,"[1]; after daily therapy from 19 to 30 weeks of age, FIG. 3",completely disappeared
same,tumor number in the liver,"[1]; treated daily from 19 to 30 weeks of age, compared to vehicle-treated mice, FIG. 3",significantly inhibited
same,frequency of CD11b+ DCs,[2]; FIG. 5A/5B,not changed
same,frequency of CD11chi MHC class IIhi dendritic cells (DCs),[2]; FIG. 5A/5B,not changed
same,population of CD103+ DCs,[2]; FIG. 5A/5B,increased
same,frequency of CD8+ T cells,[2]; FIG. 6A,not changed
same,ratio of CD8+ T cells to Tregs,[2]; FIG. 6A,increased
same,frequency of CD4+Foxp3+ regulatory T cells (Tregs),[2]; FIG. 6A/6B,significantly reduced
same,frequency of CD4+Foxp3- T cells,[2]; FIG. 6A/6B,"but not CD4^+Foxp3^− T cells, was significantly reduced"
same,number of CD8+ T cells expressing the activation marker CD69,[2]; FIG. 7A/7B,significantly increased
same,number of CD8+ T cells expressing programmed cell death-1 (PD-1),[2]; FIG. 8A/8B,significantly reduced

# — patent publication US10583129B2, “Use of EP4 receptor antagonists for the treatment of NASH-associated liver cancer” (AskAt Inc., priority 2016, dated 2020)
